The subject of one assay is panel of 100 kinases. Nature of the assay: Selectivity against a panel of 100 kinases (Upstate/Millipore), expressed as Gini coefficient. It counts as biochemical. The settings on record: calculated from remaining activity at 1 micromolar compound, 10 micromolar ATP, 0 = non-selective, 1 = perfect selectivity. How it is done: Inhibitory potency of compounds (I) at a concentration of 1 micromolar and with ATP concentration of 10 micromolar was determined at Upstate/Millipore against a panel of 100 kinases representing all major families within the kinome. The results are presented in Table 3 and are expressed as percentage of remaining activity.
For comparison purposes Table 4 contains the relevant inhibitory data for reference compounds A-K containing a (hetero)aromatic ring at C(5) of the 7-azaindole system.
Selectivity of compounds according to the present invention and reference compounds expressed as Gini coefficient (J. Med. Chem. 2007, 50, 5773-5779) is shown in Table 5. The individual Gini coefficients have been calculated using the data in Tables 3 and 4. Value Gini=0 corresponds to a totally non-selective compound; value Gini=1 reflects perfect selectivity (inhibition of a single target only)

In another assay the test system is MOG (35-55)-induced EAE. Nature of the assay: MOG (35-55)-induced experimental autoimmune encephalomyelitis (EAE) in mice. Type of assay: in vivo, C57/B16J mice. The following applies: 20 mg/kg, p.o., once daily, from appearance of symptoms.
The next assay deals with TNFα. Briefly: LPS-induced TNFα suppression in mice (plasma TNFα, ELISA). The settings on record: Mus musculus, po; 20 mg/kg p.o. 30 min before LPS 10 mg/kg i.p.; 1 hour after LPS; versus vehicle-treated animals; read-out: Percentage reduction in the level of TNFα in plasma. Type of assay: in vivo, male C57/B16 mice. How it is done: (§1) The studies were carried out in male C57/B16 mice. Compounds (20 mg/kg; p.o.) were administered 30 minutes before injection of lipopolysaccharide (LPS). LPS was administered intraperitoneally at a dose of 10 mg/kg. Animals were sacrificed 1 hour following LPS injection. Blood was collected into heparinized tubes for measurement of plasma TNFα levels and spleens were collected for the measurement of c-Jun phosphorylation. Plasma TNFα was measured using an ELISA kit purchased from R&D systems. Spleens were homogenised, extracted in high salt (250 mM NaCl) lysis buffer with phosphatase inhibitors and c-Jun phosphorylation was measured using HTRF. The suppressive effect of compounds was calculated as the percentage reduction of the TNFα level in plasma and P-c-Jun level in spleen as compared with the vehicle-treated animals.

A further assay concerns the target JNK3 (Homo sapiens, UniProt P53779). Briefly: JNK3 SPA assay. It counts as biochemical. The settings on record: 3.33 μM ATP, GST-c-Jun substrate; read-out: IC50 against JNK3. An outline of the steps: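 Radiometric SPA using GST-c-Jun with [γ-33P]ATP in 25 mM HEPES pH 7.5 and 10 mM Mg acetate; the substrate solution held 3.33 µM ATP (JNK2/3) or 2 µM ATP (JNK1). Reactions ran 30 min at room temperature and were stopped with glutathione SPA beads plus 40 mM ATP. IC50 is the concentration halving c-Jun phosphorylation versus control.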

The subject of the next assay is c-Jun phosphorylation. Nature of the assay: LPS-induced c-Jun phosphorylation in spleen of mice (HTRF). It counts as in vivo, male C57/B16 mice. The settings on record: Mus musculus, po; 20 mg/kg p.o. 30 min before LPS 10 mg/kg i.p.; 1 hour after LPS; versus vehicle-treated animals; read-out: Percentage reduction in the level of P-c-Jun in spleen. The protocol:
as §1
On the technique in general: TR-FRET usually uses a lanthanide donor and a delayed reading to cut background.

For another assay, the target named is JNK2 (Homo sapiens, UniProt P45984). Nature of the assay: JNK2 SPA assay. It counts as biochemical. The following applies: 3.33 μM ATP, GST-c-Jun substrate. The protocol:
(§2) JNK1, JNK2, JNK3—SPA Assay
(§3) JNK1, JNK2, JNK3—SPA Assay • 1. Compound is dissolved in DMSO to a convenient concentration and this is diluted in 10% DMSO to a five times concentrate of the desired starting concentration (frequently 1:100). • 2. 10 μl of 500 mM EDTA is added to alternative wells of the Opti-plate row, which will receive kinase reaction plus DMSO. This creates the negative control. • 3. For the JNK2 and JNK3 assay, compounds are prepared in six 2-fold dilutions with water and each concentration is tested in duplicate. For the JNK1 assay compounds are prepared in four 5-fold dilutions with water which are tested in triplicate. Controls are treated identically. • 4. 20 μl per well of each compound concentration is transferred to an Opti-plate, in duplicate. • 5. 30 μl (JNK2/3 SPA) or 50 μl (JNK1 SPA) of substrate solution (25 mM HEPES pH 7.5, 10 mM magnesium acetate with 3.33 μM ATP (JNK2/3) or 2 μM ATP (JNK1), approximately 7.5 kBq [γ-^33P] ATP, GST-c-Jun, in water) is added to each well. • 6. 50 μl (JNK2/3 SPA) or 30 μl (JNK1 SPA) of kinase solution (JNK in 25 mM HEPES pH 7.5, 10 mM Mg Acetate) is added to each well.
(§4) • 7. The plate is incubated for 30 minutes at room temperature. • 8. […] Plates are sealed and incubated for 30 minutes at room temperature, centrifuged for 10 minutes at 2500 g and counted. • 10. […]

In a further assay the target is JNK1 (Homo sapiens, UniProt P45983). Briefly: JNK1 SPA assay. Type of assay: biochemical. The settings on record: 2 μM ATP, GST-c-Jun substrate. How it is done: as §2, §3, §4
JNK1, sequence (P45983 whole entry, species assumed): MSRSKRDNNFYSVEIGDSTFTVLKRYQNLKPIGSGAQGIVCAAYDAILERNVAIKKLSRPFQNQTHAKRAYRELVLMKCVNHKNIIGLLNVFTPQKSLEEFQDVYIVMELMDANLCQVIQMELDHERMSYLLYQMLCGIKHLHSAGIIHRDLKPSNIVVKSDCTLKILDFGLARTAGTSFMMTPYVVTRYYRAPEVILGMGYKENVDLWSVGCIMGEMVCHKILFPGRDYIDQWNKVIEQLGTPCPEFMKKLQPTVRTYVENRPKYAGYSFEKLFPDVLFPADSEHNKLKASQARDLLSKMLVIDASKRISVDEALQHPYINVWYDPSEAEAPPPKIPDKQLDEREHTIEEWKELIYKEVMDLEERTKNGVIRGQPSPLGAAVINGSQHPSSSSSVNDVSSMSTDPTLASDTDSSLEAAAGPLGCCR

JNK3, sequence (P53779 whole entry, species assumed): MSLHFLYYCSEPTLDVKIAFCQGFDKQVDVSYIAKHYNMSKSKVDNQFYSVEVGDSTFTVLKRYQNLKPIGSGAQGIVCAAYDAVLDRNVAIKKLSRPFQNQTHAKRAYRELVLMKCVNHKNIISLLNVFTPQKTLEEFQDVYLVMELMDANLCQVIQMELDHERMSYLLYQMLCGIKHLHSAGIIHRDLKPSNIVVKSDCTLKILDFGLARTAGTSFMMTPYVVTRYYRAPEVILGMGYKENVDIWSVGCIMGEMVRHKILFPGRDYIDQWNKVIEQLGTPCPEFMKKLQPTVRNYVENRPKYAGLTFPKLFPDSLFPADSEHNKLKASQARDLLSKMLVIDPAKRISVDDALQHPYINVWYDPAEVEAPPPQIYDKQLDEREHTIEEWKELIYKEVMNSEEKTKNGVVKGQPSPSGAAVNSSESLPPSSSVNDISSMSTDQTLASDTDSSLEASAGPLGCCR
JNK2, sequence (P45984 whole entry, species assumed): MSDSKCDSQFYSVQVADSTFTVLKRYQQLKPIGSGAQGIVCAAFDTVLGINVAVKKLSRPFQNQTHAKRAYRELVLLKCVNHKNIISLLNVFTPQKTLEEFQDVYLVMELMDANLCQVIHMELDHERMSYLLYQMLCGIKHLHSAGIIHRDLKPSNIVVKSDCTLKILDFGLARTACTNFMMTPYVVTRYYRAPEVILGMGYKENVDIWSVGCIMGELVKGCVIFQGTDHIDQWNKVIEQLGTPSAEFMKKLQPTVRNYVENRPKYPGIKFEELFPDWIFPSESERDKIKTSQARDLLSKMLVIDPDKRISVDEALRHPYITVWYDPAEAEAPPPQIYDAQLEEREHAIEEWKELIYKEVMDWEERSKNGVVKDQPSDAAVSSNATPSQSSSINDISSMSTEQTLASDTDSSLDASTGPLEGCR

For the compound `CN(C)c1ccc(-c2cnc3[nH]cc(-c4cn[nH]c4)c3c2)cc1` [A], the “Gini coefficient, reference compounds, aromatic C(5) group” value in the assay with panel of 100 kinases was 0.3368.
As a reminder, the IC50 is the concentration needed to halve the response being measured. Consider `Cn1cc(-c2c[nH]c3ncc([C@H]4CC[C@H](N5CCOCC5)CC4)cc23)cn1` [Compound I-6, 4-((1r,4r)-4-(3-(1-methyl-1H-pyrazol-4-yl)-1H-pyrrolo[2,3-b]pyridin-5-yl)cyclohexyl)morpholine], for which the “total white matter area in the lumbar spinal cord” value in the assay on MOG (35-55)-induced EAE (FIG. 10) is “preservation”. Also, the “neuronal numbers in the ventral horn of the lumbar spinal cords” value with MOG (35-55)-induced EAE (FIG. 11) is reported as “preservation”. For the same compound, the “demyelination in the lumbar spinal cord” value in the assay with MOG (35-55)-induced EAE (FIG. 12) was “decrease”. In addition, the inhibition in vivo at 20 mg/kg with TNFα was found to be 82%; with c-Jun phosphorylation it was 41%. Moreover, the IC50 on JNK3 was found to be 80 nM.
With `CC(C)N1CCN([C@H]2CC[C@@H](c3cnc4[nH]cc(-c5cnn(C)c5)c4c3)CC2)CC1` [Compound I-44, 5-((1s,4s)-4-(4-isopropylpiperazin-1-yl)cyclohexyl)-3-(1-methyl-1H-pyrazol-4-yl)-1H-pyrrolo[2,3-b]pyridine], the figures for the inhibition in vivo at 20 mg/kg with TNFα and with c-Jun phosphorylation were 58% and 17%, respectively. Also, at JNK3, the IC50 turned out to be 129 nM.
The matching figures for `Cn1cc(-c2c[nH]c3ncc([C@H]4CC[C@H](N(C)C)CC4)cc23)cn1` [Compound I-71, (1r,4r)-N,N-dimethyl-4-(3-(1-methyl-1H-pyrazol-4-yl)-1H-pyrrolo[2,3-b]pyridin-5-yl)cyclohexanamine]: 86%, 7% and 189 nM.
The like results for `Cn1cc(-c2c[nH]c3ncc([C@H]4CC[C@@H](N(C)C)CC4)cc23)cn1` [Compound I-72, (1s,4s)-N,N-dimethyl-4-(3-(1-methyl-1H-pyrazol-4-yl)-1H-pyrrolo[2,3-b]pyridin-5-yl)cyclohexanamine] were, in that order, 84%, 15% and 259 nM.
The like results for `Cn1cc(-c2c[nH]c3ncc(C4=CC5CCC4C5)cc23)cn1` (stereo not drawn) [Compound I-136, 5-(bicyclo[2.2.1]hept-2-en-2-yl)-3-(1-methyl-1H-pyrazol-4-yl)-1H-pyrrolo[2,3-b]pyridine] were, in that order, 87%, 42% and 76 nM.
Take `Cn1cc(-c2c[nH]c3ncc(C4CC5CCC4C5)cc23)cn1` (stereo not drawn) [Compound I-137, 5-(bicyclo[2.2.1]heptan-2-yl)-3-(1-methyl-1H-pyrazol-4-yl)-1H-pyrrolo[2,3-b]pyridine]: the inhibition in vivo at 20 mg/kg in the assay with TNFα stood at 45%; in the assay on c-Jun phosphorylation it was 15%. In addition, the IC50 at JNK3 was 45 nM.
`Cn1cc(-c2c[nH]c3ncc(C4=CCCC5C4C5(C)C)cc23)cn1` (stereo not drawn) [Compound I-141, 5-(7,7-dimethylbicyclo[4.1.0]hept-2-en-2-yl)-3-(1-methyl-1H-pyrazol-4-yl)-1H-pyrrolo[2,3-b]pyridine]: the values for the inhibition in vivo at 20 mg/kg with TNFα and in the assay with c-Jun phosphorylation were 43% and 4%, respectively. Further, the IC50 on JNK3 is 288 nM.
The like results for `Cn1cc(-c2c[nH]c3ncc(C4C5CC6CC(C5)CC4C6)cc23)cn1` (stereo not drawn) [Compound I-154, 3-(1-Methyl-1H-pyrazol-4-yl)-5-tricyclo[3.3.1.1˜3,7˜]dec-2-yl-1H-pyrrolo[2,3-b]pyridine] were, in that order, 60%, 33% and 62 nM.
Regarding `CN1CCC(c2csc(-c3cnc4[nH]cc(-c5cnn(C)c5)c4c3)n2)CC1` [E], the “Gini coefficient, reference compounds, aromatic C(5) group” value with panel of 100 kinases was 0.3757.
Still for that read-out and setting: to `CN(C)C(=O)c1nc(-c2c[nH]c3ncc(-c4ccccc4)cc23)cs1` [G] belongs 0.3501; to `CN1CCN(C(=O)c2nc(-c3c[nH]c4ncc(-c5ccc(N6CCN(C)CC6)cc5)cc34)cs2)CC1` [J], 0.3286.
Take `CC1CCC(c2cnc3[nH]cc(-c4cnn(C)c4)c3c2)CC1` (stereo not drawn) [compound 3]: the IC50 came out at 501 nM against JNK2 and 178 nM on JNK1.
As for `CN1CCN([C@H]2CC[C@H](c3cnc4[nH]cc(-c5cnn(C)c5)c4c3)CC2)CC1` [compound 25], the “Gini coefficient, compounds (I), non-aromatic C(5) group” value with panel of 100 kinases was 0.6769. Also, the IC50 is 245 nM on JNK2 and 191 nM on JNK1.
